# Measurements from patent US8859628B2, “Method for preventing, treating and diagnosing disorders of protein aggregation” (priority 2003, dated 2014).
# Columns and labels:
# [1] = tested on: AD patients; settings: human, in vivo; cited from earlier work
# [2] = tested on: TgCRND8 mice; test: Morris Water Maze, spatial reference memory version, five-day trial paradigm (prevention study); type: in vivo, mouse; settings: 6 months of age
# Experimental: Age and sex-matched cohorts of TgCRND8 mice and non-transgenic littermates (n=35 in each cohort) were either untreated, or were given a compound of the present invention as indicated below at 30 mg/day/mouse beginning at age of about 6 weeks. The mice were followed for outcome measures cognitive function, brain Aβ levels, brain pathology, and survival at 4 months and 6 months of age.
# Two cohorts entered the study at 6 weeks of age and outcomes were analyzed at 4- and 6-months of age. The body weight, coat characteristics and in cage behavior was monitored. All experiments were performed according to the Canadian Council on Animal Care guidelines.
# Behavioral tests—After non-spatial pre-training, mice underwent place discrimination training for 5 days with 4 trials per day. Behavioral data was analyzed using a mixed model of factorial analysis of variance (ANOVA) with drug or genotype and training sessions as repeated measure factors.
# The cognitive function of TgCRND8 mice was assessed using the spatial reference memory version of the Morris Water Maze using a five-day trial paradigm (FIGS. 1C-1H). […] The improved performance was also not due to nutritional or caloric effects because body weight, activity, and coat condition were not different between treated and untreated cohorts. […] Gender effects were not significant between any treatment group (p=0.85).
# [3] = tested on: TgCRND8 mice; test: Cerebral Aβ content (Aβ40 and Aβ42 kits on hemi-brain homogenates); type: in vivo, mouse; set-up: Total Aβ: unit not given here
# Experimental: (§1) Plasma and Cerebral Aβ Content—Hemi-brain samples were homogenized in a buffered sucrose solution, followed by either 0.4% diethylamine/100 mM NaCl for soluble Aβ levels or cold formic acid for the isolation of total Aβ. After neutralization the samples were diluted and analyzed for Aβ40 and Aβ42 using commercially available kits (BIOSOURCE International). Each hemisphere was analyzed in triplicate with the mean±SEM reported. Western blot analyses were performed on all fractions using urea gels for Aβ species analyses. Aβ was detected using 6E10 (BIOSOURCE International) and Enhanced Chemiluminenscence (Amersham).
# as §1, with “reported.” for “reported. Western blot analyses were performed on all fractions using urea gels for Aβ species analyses. Aβ was detected using 6E10 (BIOSOURCE International) and Enhanced Chemiluminenscence (Amersham).”
# [4] = tested on: TgCRND8 mice; test: Plasma Aβ levels; type: in vivo, mouse
# Experimental: as §1
# as §1, with “reported.” for “reported. Western blot analyses were performed on all fractions using urea gels for Aβ species analyses. Aβ was detected using 6E10 (BIOSOURCE International) and Enhanced Chemiluminenscence (Amersham).”
# [5] = tested on: TgCRND8 mice; test: Cerebral amyloid plaque burden (anti-Aβ immunostaining, image analysis); type: in vivo, mouse
# Experimental: (§2) Cerebral amyloid burden—Brains were removed and one hemisphere was fixed in 4% paraformaldehyde and embedded in paraffin wax in the mid saggital plane. To generate sets of systematic uniform random sections, 5 μm serial sections were collected across the entire hemisphere. Sets of sections at […] intervals were used for analyses (10-14 sections/set). Plaque were identified after antigen retrieval with formic acid, and incubated with primary anti-Aβ antibody (Dako M-0872), followed by secondary antibody (Dako StreptABCcomplex/horseradish kit). End products were visualized with DAB counter-stained with hematoxylin. Amyloid plaque burden was assessed using Leco IA-3001 image analysis software interfaced with Leica microscope and Hitachi KP-M1U CCD video camera. Vascular burden was analyzed similarly and a dissector was used to measure the diameter of affected vessels.
# as §2, with “camera.” for “camera. Vascular burden was analyzed similarly and a dissector was used to measure the diameter of affected vessels.”
# [6] = tested on: TgCRND8 mice; test: Survival census (Kaplan-Meier); type: in vivo, mouse; settings: vs untreated TgCRND8
# Experimental: Survival Census—The probability of survival was assessed by the Kaplan-Meier technique, computing the probability of survival at every occurrence of death, thus making it suitable for small sample sizes. For the analyses of survival, 35 mice were used for each treatment group. The comparison between treatments was reported using the Tarone-Ware test.
# [7] = tested on: TgCRND8 mice; test: Morris Water Maze, spatial reference memory version, three-day trial paradigm (treatment/reversal study); type: in vivo, mouse; settings: 1 month treatment from 5 months of age, three-day paradigm
# Experimental: A cohort entered the study at 5 months of age and outcomes were analyzed at 6-months of age. The body weight, coat characteristics and in cage behavior was monitored. All experiments were performed according to the Canadian Council on Animal Care guidelines.
# Behavioral Test—Reversal Study—Mice entered the Morris water maze test with a hidden platform on day one without pretraining. Mice were tested for 3 days with six trials per day. On the fourth day, the platform was removed from the pool and each mouse received one 30-s swim probe trial. On the last day the animals underwent a cue test in order to evaluate swimming ability, eye sight and general cognition. The cue test is composed at the platform being placed in a different quadrant than that used for testing and is tagged with a flag. Animals are allowed 60 s to find the platform. […] Behavioural data was analysed using a mixed model of factorial analysis of variance (ANOVA) with drug or genotype and training sessions as repeated measure factors.
# The cognitive function of TgCRND8 mice was assessed using the spatial reference memory version of the Morris Water Maze using a three day trial paradigm (FIGS. 4-8).
# Behavioural data was analysed using a mixed model of factorial analysis of variance (ANOVA) with drug and genotype as between subject variables and training sessions as within subject variable.
# In these experiments, the dosage and oral administration of compounds, and the behavioral and neurochemical assays were the same as those employed in the above treatment experiments.
# [8] = target: T1, Aβ42 (Homo sapiens, UniProt P05067); settings: cited from earlier work
# T1 construct: The importance of residues 1-42 (Aβ42) in Alzheimer's disease was highlighted
# [9] = 1 month treatment from 5 months of age
# [10] = 1 month treatment, 30 mg/mouse/day from 5 months, analyzed at 6 months of age
# [11] = 4 month prevention, 30 mg/mouse/day from 6 weeks of age
# [12] = 6 month prevention, 30 mg/mouse/day from 6 weeks of age
# T1 sequence (P05067 672-713 limits assumed): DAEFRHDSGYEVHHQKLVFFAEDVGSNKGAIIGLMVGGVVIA
smiles,measurement,setting,value
O[C@H]1[C@H](O)[C@@H](O)[C@H](O)[C@@H](O)[C@H]1O [inositol],CAMCOG subscales orientation and language,[1],did show significant improvement
"O[C@H]1[C@H](O)[C@@H](O)[C@H](O)[C@@H](O)[C@H]1O [Myo-Inositol, myo-inositol, reference compound]","cognitive function, treated vs untreated TgCRND8 mice (words)",[2],did not alter cognitive function
same,Aβ load vs untreated,[3]; [9],did not affect the plaque burden or Aβ load
same,Total Aβ,[3]; [10],20490 ± 526
same,Total Aβ,[3]; [11],4969 ± 434
same,Total Aβ,[3]; [12],17489 ± 354
same,Plasma Aβ Levels,[4]; 1 month treatment,2110 ± 174 pg/mL
same,effect on plasma Aβ levels in comparison to untreated (words),[4]; [9],"Neither myo-inositol, epi-inositol nor scyllo-inositol treatment had any effect on plasma Aβ levels"
same,Plasma Aβ Levels,[4]; 4 month prevention,942 ± 30 pg/mL
same,Plasma Aβ Levels,[4]; 6 month prevention,969 ± 67 pg/mL
same,plaque burden vs untreated,[5]; [9],did not affect the plaque burden or Aβ load
same,Plaque Area,[5]; [10],469968 ± 35664 μm^2
same,Plaque Count,[5]; [10],1324 ± 69
same,Total Plaque Area/Total Brain Area,[5]; [10],0.153 ± 0.088%
same,Plaque Area,[5]; [11],91902 ± 7453 μm^2
same,Plaque Count,[5]; [11],649 ± 50
same,Total Plaque Area/Total Brain Area,[5]; [11],0.023 ± 0.004%
same,Plaque Area,[5]; [12],400013 ± 19638 μm^2
same,Plaque Count,[5]; [12],927 ± 78
same,Total Plaque Area/Total Brain Area,[5]; [12],0.100 ± 0.005%
same,effect on survival of TgCRND8 mice,[6],did not affect overall survival significantly
same,"cognitive function, treated TgCRND8 mice vs non-Tg littermates (words)",[7],significantly different from treated non-Tg littermates
same,stabilization of Aβ42 micelle,[8],stabilizes a small micelle of Aβ42
